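Results reflect a 48-hour exposure of cells in 96-well plates to compound at five concentrations. TGI denotes the concentration required for complete inhibition of growth.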
Columns and labels:
Test in all cases: NCI tumour cell line growth inhibition, 48 h
CCRF-CEM leukemia = system: CCRF-CEM leukemia
RXF 393 renal = system: RXF 393 renal
NCI-H23 lung = system: NCI-H23 lung
A549 NSCLC = system: A549 NSCLC
UO-31 renal = system: UO-31 renal
PC-3 prostate = system: PC-3 prostate
HS 578T breast = system: HS 578T breast
OVCAR-4 ovarian = system: OVCAR-4 ovarian
MCF7 breast = system: MCF7 breast
NCI/ADR-RES ovarian = system: NCI/ADR-RES ovarian

Compound	TGI (CCRF-CEM leukemia) [µM]	TGI (RXF 393 renal) [µM]	TGI (NCI-H23 lung) [µM]	TGI (A549 NSCLC) [µM]	TGI (UO-31 renal) [µM]	TGI (PC-3 prostate) [µM]	TGI (HS 578T breast) [µM]	TGI (OVCAR-4 ovarian) [µM]	TGI (MCF7 breast) [µM]	TGI (NCI/ADR-RES ovarian) [µM]
Cc1ccc2c3ccc4c(c3n(C)c2c1)C(=O)C=CC4=O	0.844	> 7.63	> 10	> 10	> 10	> 10	> 10	> 7.77	> 6.18	> 10
CCOC(=O)c1c(C)n(CCN2CCN(C)CC2)c2ccc(OC)cc12	71.4	> 100	> 100	> 100	> 100	> 100	> 100	> 100	> 100	> 100
CCCNC(=O)Cn1c(-c2ccccc2)cc2ccccc21	> 100	57.3	> 100	> 100	> 100	> 100	> 100	> 100	> 100	> 100
CCCCC[C@@H]1OC(=O)[C@@]2(CC3c4ccccc4C2c2ccccc23)[C@H]1C(=O)OC	> 100	> 100	> 100	> 100	> 100	> 100	> 100	> 100	> 100	> 100
CNc1ccc([N+](=O)[O-])cc1C(=O)N1CCC[C@H]1CO	> 100	> 100	> 100	> 100	> 100	> 100	> 100	> 100	> 100	> 100
CCCCCCCCCCCOCCC1C(C(C)OCCN2CCCC2)OC2OC(C)(C)OC21 (stereo not given)	> 23.9	7.3	11	11.5	6.51	6.05	6.93	22.3	6.58	19.6
COC(=O)[C@]12CCC(=O)N1[C@H](C(=O)O)Cc1c2[nH]c2ccccc12	> 100	> 100	> 100	> 100	> 100	> 100	> 100	> 100	> 100	> 100
Fc1ccccc1C1SCC2=Nc3ccccc3CN21 (stereo not given)	> 100	> 100	> 100	> 100	> 100	> 100	> 100	> 100	> 100	> 100
CC(CN(C)C)C(O)(c1ccccc1)c1ccccc1 (stereo not given)	> 100	> 100	> 100	> 100	> 100	> 100	> 100	> 100	> 100	> 100
COc1cc2c(cc1OCc1ccccc1)NC(=O)[C@@H]1C[C@@H](O)CN1C2=O	> 100	> 100	> 100	> 100	> 100	> 100	> 100	> 100	> 100	> 100
O=C(NC(Cc1c[nH]c2ccccc12)C(=O)O)/C(=C/c1ccccc1)NC(=O)c1ccccc1 (stereo not given)	> 100	> 100	> 100	> 100	> 100	> 100	> 100	> 100	> 100	> 100
CCOC(=O)C1C2C1C1C(C(=O)OCC)C21 (stereo not given)	> 100	> 100	> 100	> 100	> 100	> 100	> 100	> 100	> 100	> 100
O=c1[nH]nc(Cc2ccc([N+](=O)[O-])cc2)[nH]1	> 100	> 100	> 100	> 100	> 100	> 100	> 100	> 100	> 100	> 100
O=C(O)c1cc2c(cc1CC(Cc1ccccc1)C(=O)O)CCC2 (stereo not given)	> 100	> 100	> 100	> 100	> 100	> 100	> 100	> 100	> 100	> 100
Cc1cn(C2CC(O)C(Cn3cc(Cn4nc(Br)c(=O)[nH]c4=O)nn3)O2)c(=O)[nH]c1=O (stereo not given)	14.3	> 100	> 100	> 100	> 100	> 100	> 100	> 100	> 100	> 100
NC(=O)Nc1n[nH]c(-c2ccccc2)n1	> 100	> 100	> 100	> 100	> 100	> 100	> 100	> 100	> 100	> 100
